Measured values as given in patent publication US8835556B2, “Hydrolytically stable maleimide-terminated polymers” (priority 2002, dated 2014).

Conditions: buffer
Method: Typically, such hydrolysis evaluations are carried out at pH 7.5 in phosphate buffer at room temperature and are measured by observing the UV absorption of the maleimide ring.
The half-life of a polymer maleimide can be determined by measuring the concentration of the maleimide-terminated polymer over time using HPLC or by observing the UV absorption of the maleimide ring.
Using HPLC analysis, the rate of hydrolytic degradation of the maleimide ring of several exemplary maleimide-terminated mPEG polymers (average molecular weight 5000 Da) was explored.
The following linkages between the maleimide and the PEG polymer segment were evaluated: amidoethylene (L1-AMDE), amidopentamethylene (L1-AMPE), amidocyclohexylmethyl (L1-MCH), oxybutyl (L3-TEME), oxyhexyl (L3-HEXA), oxyethyl (L3-ET), and oxypropyl (L3-TME).
Hydrolysis studies were conducted on several exemplary stabilized PEG-maleimides as described above in Example 7.

HALF-LIFE, IN HOURS [h] | Half-life [h] | Substance
20.6 | – | 1-(N-maleimidomethyl)-4-(methoxypoly(ethylene glycol)propionamidomethyl)cyclohexane
64.6 | – | 1-N-maleimidomethyl-3-(methoxypoly(ethylene glycol)propionamidomethyl)cyclohexane
11.5 | 11.5 | mPEG (5K DA)-propylmaleimide [mPEG-TME-MAL]
